The source of these data is ChEMBL document CHEMBL3244276, “Hydrogen-bonding parameter and its significance in quantitative structure--activity studies” (J Med Chem, 1977).

A short description of series [1]: physchem. As to conditions: octanol/water.
Series [2] can be described thus: physchem.
For series [3] the following is noted: octanol/water.
For series [4] the following is noted: octanol/water. This is another data set of the same source.
For series [5] the following is noted: octanol/water. The source holds these as a separate data set.
For series [6] the following is noted: octanol/water. This is another data set of the same source.
For series [7] the following is noted: octanol/water. The source holds these as a separate data set.

Usually logP stands for a log measure of how a compound divides between an organic and an aqueous phase. A lower logP goes with lower lipophilicity.

In turn, `Oc1cccc(I)c1` came in with a logP in the series “physchem [1]” of 2.93. `CC1OC(C)OC(C)O1` (stereo not drawn): the logP in “physchem [2]” (oil/water) came out at 0.28. With `COc1cccc(OCC(=O)O)c1`, in the series “physchem [1]”, the logP turned out to be 1.38. On the same count and under the same terms, next, `CC(=O)c1ccc(S(N)(=O)=O)cc1`: 0.2; `Cc1cccc(S(N)(=O)=O)c1`: 0.85. Same read-out and setting: next, `O=C(O)COc1ccccc1`: 1.26. Still for that read-out and setting: next, `CNc1ccc(S(N)(=O)=O)cc1`: 0.08; `COc1ccc(S(N)(=O)=O)cc1`: 0.47.

Compound `N#Cc1ccc(S(N)(=O)=O)cc1` displayed a logP in the series “physchem [1]” of 0.23.

With `NS(=O)(=O)c1ccc(Br)cc1`, the logP in “physchem [1]” was 1.36. In the series “physchem [1]”, `NS(=O)(=O)c1ccc([N+](=O)[O-])c(C(F)(F)F)c1` returned a logP of 1.73. Still for that read-out and setting: next, `Oc1cccc(Br)c1`: 2.63; `CNC(=O)Oc1cccc(C(C)C)c1`: 2.63; `O=C(O)COc1cccc(C(=O)O)c1`: 1.11.

Turning to `CC(O)C(C)O` (stereo not drawn), the logP in the series “physchem [2]” (oil/water) is -2.47. In turn, `NS(=O)(=O)c1ccc([N+](=O)[O-])cc1` had a lipophilicity (logP) in “physchem [1]” of 0.64.

In turn, `O=C(O)COc1ccc(O)cc1` came in with a lipophilicity (logP) in “physchem [1]” of 0.65. Still for that read-out and setting: the value for `O=C(O)COc1cccc(Cl)c1` was 2.02. On the same count and under the same terms, next, `CC(=O)Nc1cccc(OCC(=O)O)c1`: 0.47; `O=C(O)COc1cccc([N+](=O)[O-])c1`: 1.37. `O=C(O)COc1cccc(C(F)(F)F)c1`: the logP in the series “physchem [1]” worked out at 2.33. Still for that read-out and setting: the value for `CCOc1ccccc1OC(=O)NC` was 1.24; that for `CNC(=O)Oc1ccccc1C#N` was 0.86. The compound `COP(=O)(OC)Oc1ccccc1` showed a pKHB of 2.21. The compound also registered a logP in “physchem [1]” of 1.22. For `CNC(=O)Oc1ccccc1I`, the logP in “physchem [1]” was determined as 1.96.

For `CNC(=O)Oc1ccccc1OC`, the logP in “physchem [1]” is 0.81. The same measure, in the same setting: the value for `CNC(=O)Oc1ccccc1[N+](=O)[O-]` was 1.02; that for `CNC(=O)Oc1cccc(Cl)c1` was 2.03; that for `CNC(=O)Oc1cccc(Br)c1` was 2.25. On the same count and under the same terms, the value for `CNC(=O)Oc1cccc(OC)c1` was 1.3; that for `CNC(=O)Oc1cccc(N(C)C)c1` was 1.43.

Compound `CNC(=O)Oc1cccc(C=O)c1` yielded a logP in “physchem [1]” of 0.92. As to `CNC(=O)Oc1cccc(C(C)=O)c1`, in “physchem [1]”, the logP is 0.9. The same measure, in the same setting: next, `CNC(=O)Oc1cccc(C#N)c1`: 0.98; `CNC(=O)Oc1cccc([N+](=O)[O-])c1`: 1.39.

For `CNC(=O)Oc1ccc(C(C)C)cc1`, in the series “physchem [1]”, the logP was determined as 2.8. Still for that read-out and setting: the value for `CNC(=O)Oc1ccc(I)cc1` was 2.46; that for `CCOc1ccc(OC(=O)NC)cc1` was 1.64; that for `CNC(=O)Oc1ccc(C=O)cc1` was 0.99. On the same count and under the same terms, next, `CNC(=O)Oc1ccc(C(C)=O)cc1`: 1.01.

`O=C(O)COc1ccc(F)cc1` returned a logP in “physchem [1]” of 1.41. Same read-out and setting: the value for `Cc1ccc(OCC(=O)O)cc1` was 1.78; that for `CS(=O)(=O)c1cccc(OCC(=O)O)c1` was 0; that for `CCc1cccc(OCC(=O)O)c1` was 2.23. The same measure, in the same setting: next, `NS(=O)(=O)c1cccc([N+](=O)[O-])c1`: 0.55; `NS(=O)(=O)c1cccc(Cl)c1`: 1.29. In turn, `CN(C)c1ccccc1` gave a pKHB of 0.45. This compound gave a logP in series [3] of 2.38.

`CN(C)C(=O)c1ccccc1` gave a pKHB of 2.22. In the series “physchem [1]”, this compound returned a logP of 0.62. Compound `CN(C)Cc1ccccc1` registered a pKHB of 1.56. The logP in series [3] was found to be 1.44. In “physchem [1]”, this compound gave a logP of 1.98.

For `CCOC(N)=O`, in the series “physchem [2]” (oil/water), the logP is -1.13. `CC(=O)N(C)c1ccccc1`: the pKHB turned out to be 2. This compound displayed a logP in series [3] of -0.4. The logP in the series “physchem [1]” was determined as 1.12.

In the case of `Oc1ccc(I)cc1`, the lipophilicity (logP) in “physchem [1]” was 2.91. On the same count and under the same terms, next, `Oc1cccc(F)c1`: 1.93. For `C[C@H](O)CCO` [1,3-BUTANEDIOL], in the series “physchem [2]” (oil/water), the logP is -2.37.

`OCCCCO` [1,4-BUTANEDIOL]: the lipophilicity (logP) is -2.68 in the series “physchem [2]” (octanol/water) and -1.72 in series [4].

The compound `OCCCCCCO` [1,6-HEXANEDIOL] showed a logP in the series “physchem [2]” (oil/water) of -2.17. In series [5], `CCCCCO` [1-PENTANOL] came in with a logP of 0.36. With `COc1cccc(O)c1` [1-hydroxy-3-methoxybenzene], the logP in the series “physchem [1]” came to 1.58. On the same count and under the same terms, next, `CNC(=O)Oc1ccc(C#N)cc1` [4-CYANOPHENYL METHYLCARBAMATE]: 0.95. `CNC(=O)Oc1ccc([N+](=O)[O-])cc1` [4-NITROPHENYL METHYLCARBAMATE]: in “physchem [1]”, the logP worked out at 1.46. Compound `CC(C)=O` [ACETONE] had a logP in the series “physchem [2]” (oil/water) of -0.7.

In turn, `CC(=O)c1ccccc1` [ACETOPHENONE] displayed a pKHB of 1.13. Also, in series [3], the logP was 1.14. For `Nc1ccccc1` [ANILINE], in series [3], the logP is listed as -0.05. The compound `COc1ccccc1` [ANISOLE] showed a pKHB of 0.02. Compound `O=Cc1ccccc1` [BENZALDEHYDE] returned a pKHB of 0.8. In series [3], this compound had a logP of 1.11. `NS(=O)(=O)c1ccccc1` [BENZENESULFONAMIDE] registered a log partition coefficient (logP) in “physchem [1]” of 0.31.

Compound `N#Cc1ccccc1` [BENZONITRILE] came in with a pKHB of 0.79. For the same compound, the logP in series [3] amounted to 0.96. Besides, the logP in the series “physchem [1]” is 1.56.

Regarding `OCc1ccccc1` [BENZYL ALCOHOL], the logP in series [3] is reported as -0.76. On the same count and under the same terms, next, `NCc1ccccc1` [BENZYLAMINE]: -0.15. Compound `Brc1ccccc1` [BROMOBENZENE] came in with a pKHB of -0.84. In series [3], the logP is reported as 3.08. `CCCC(N)=O` [BUTYRAMIDE] showed a logP in “physchem [2]” (oil/water) of -2.02.

`Clc1ccccc1` [CHLOROBENZENE]: the pKHB is -0.8. Further, the logP in series [3] is reported as 2.98. `CCOCC` [ETHER] showed a logP in “physchem [2]” (oil/water) of 0.38. Same read-out and setting: the value for `CCOC(C)=O` [ETHYL ACETATE] was 0.4. With `CCc1ccccc1` [ETHYLBENZENE], the pKHB is -0.34. For `OCCO` [ETHYLENE GLYCOL], the values for the lipophilicity (logP) (in the series “physchem [2]” (octanol/water); in series [4]) were -3.31 and -2.28, respectively.

In turn, `CCCCCC(=O)O` [HEXANOATE] registered a logP in series [5] of 0.83. `CC(C)CC(N)=O` [ISOVALERAMIDE] yielded a logP in “physchem [2]” (oil/water) of -1.64.

`COc1ccc(O)cc1` [MEQUINOL] had a logP in the series “physchem [1]” of 1.34. Take `Cc1cccc(O)c1` [METACRESOL]: in “physchem [1]”, the logP was determined as 2.02.

Regarding `C1N2CN3CN1CN(C2)C3` [METHENAMINE], the logP in “physchem [2]” (oil/water) is -3.68. On the same count and under the same terms, next, `COC(N)=O` [METHYL CARBAMATE]: -1.6. On to `CS(=O)(=O)c1ccccc1` [METHYLPHENYLSULFONE], for which the pKHB was 1.05. Moreover, in “physchem [1]”, the logP came out at 0.47. `CNC(=O)Oc1cccc(C)c1` [METOLCARB] came in with a logP in the series “physchem [1]” of 1.7. With `O=[N+]([O-])c1ccccc1` [NITROBENZENE], the results for the logP in series [3] and in series [6] were 1.49 and 2.93, respectively.

In the series “physchem [1]”, `NS(=O)(=O)c1ccc(Cl)cc1` [P-CHLOROBENZENESULFONAMIDE] registered a logP of 0.84. Still for that read-out and setting: next, `Cc1ccc(S(N)(=O)=O)cc1` [P-TOLUENESULFONAMIDE]: 0.82.

In the case of `CCOc1ccccc1` [PHENETOLE], the pKHB came to 0.22. In addition, the logP in “physchem [1]” was found to be 2.51. With `Oc1ccccc1` [PHENOL], the results for the logP in series [7], in series [3] and in series [6] were 1.3, -0.89 and 0.36, respectively. `O=C(O)Cc1ccccc1` [PHENYLACETIC ACID] registered a logP in the series “physchem [1]” of 1.41.

`CCC(N)=O` [PROPIONAMIDE]: the logP in the series “physchem [2]” (oil/water) was -2.44.

Take `CCC(=O)O` [PROPIONIC ACID]: the logP in series [5] is -0.8. Turning to `CNC(=O)Oc1ccccc1OC(C)C` [PROPOXUR], the logP in the series “physchem [1]” amounted to 1.52.

`CC(O)CO` (stereo not drawn) [PROPYLENE GLYCOL]: in the series “physchem [2]” (oil/water), the logP was -2.77.

The compound `O=C1CCC(=O)N1` [SUCCINIMIDE] displayed a logP in “physchem [2]” (oil/water) of -2.31. In the case of `Cc1ccccc1` [TOLUENE], the pKHB is reported as -0.29.

As to `CC(=O)OCC(COC(C)=O)OC(C)=O` [TRIACETIN], the logP in “physchem [2]” (oil/water) is -0.36. On the same count and under the same terms, next, `CCCCC(=O)O` [VALERIC ACID]: 0.48.
